Measurements: ChEMBL document CHEMBL5604062, “ASAP - ZIKV NS2B-NS3 protease fluorescence dose response” (2024)
Where “and” joins values, the source holds several entries; their conditions need not be identical. Identical values can stand only once.

Target: Nonstructural protein 3 (Zika virus, UniProt A0A024AXB9)
Assay: Functional biochemical assay to identify treatments for viral infectious disease that targets Zika NS2B-NS3 protease. Utilizing a direct enzyme activity measurement method, reading the fluorescence intensity is used to characterize the relative potency of inhibitors as IC50.
Set-up: species or system PRVABC59

Chain of Nonstructural protein 3 (A0A024AXB9 whole entry): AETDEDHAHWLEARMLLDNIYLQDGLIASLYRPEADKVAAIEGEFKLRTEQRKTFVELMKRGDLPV

| IC50 | SMILES |
| --- | --- |
| 0.074 µM and 0.049 µM | O=C(NCCC1CC1)[C@H](Nc1ccc2c(c1)CNC2)c1cc(Cl)cc(C2CC2)c1 |
| 15.7 µM | O=C(Nc1ccc2c(c1)CNC2)N1CCC2(C1)CC(F)(F)C2 |
| > 99.5 µM | CCn1ccc(-c2ccc([C@@H](NC(=O)OCc3ccccc3)C(=O)Nc3cccc(CN)c3)cc2)n1 |
| > 99.5 µM | O=c1ccn(Cc2cc(=O)n3ccccc3n2)c2ccsc12 |
| > 99.5 µM | NCc1cccc(NC(=O)[C@@H](NC(=O)OCc2ccccc2)C2CCN(S(=O)(=O)Cc3cscn3)CC2)c1 |
| > 99.5 µM | Cc1cc(Cl)cc(C(=O)Nc2cccc(CN)c2)n1 |
| 22.2 µM | O=C(Nc1ccc2c(c1)CNC2)c1ccc(OCC(F)(F)F)nc1 |
| 0.045 µM and 0.028 µM | C=Cc1cc2c(cc1NC(=O)c1cc(F)cc3[nH]ncc13)CNC2 |
| > 99.5 µM | CS(=O)(=O)c1cccc(NC(=O)c2cc(Cl)cc(NC(=O)OCc3ccccc3)c2)c1 |
| > 99.5 µM | NS(=O)(=O)c1ccc(C(F)F)cc1-c1ccc2[nH]c(C(=O)O)cc2c1 |
| 20.4 µM | COc1cc(N[C@@H](C(=O)N2CCc3ccc(OC(F)(F)F)cc32)c2ccc(Cl)cc2)cc(OCCCC(=O)O)c1 |
| 0.768 µM | C[C@]1(OCCCO)C(=O)Nc2cc(F)cc(C(=O)Nc3ccc4c(c3)CNC4)c21 |
| 0.132 µM | O=C(Nc1ccc2c(c1)CNC2)c1cc(Cl)cc2nn(C3CCOCC3)cc12 |
| > 99.5 µM | Cc1c(C(=O)Nc2cc(C(N)=O)c3ccccc3n2)cc(C2CC2)n1C |
| > 99.5 µM | Clc1ccc2nc(C3CCOCC3)n(Cc3ccc4c(c3)CNC4)c2c1 |
| 26.9 µM | CCOC(=O)[C@H]1[C@H](c2cc(Cl)cc(NC(=O)OCc3ccccc3)c2)[C@H]1c1cccc(-c2nnn[nH]2)c1 |
| > 25 µM | O=C1NS(=O)(=O)c2ccc(NC(=O)c3cc(Cl)cc4[nH]ncc34)cc21 |
| > 99.5 µM | CCn1cc(-c2ccc(CN(C)C)cc2)nc(N2CC[C@@H](CO)C2)c1=O |
| > 25 µM | Cc1c(C(=O)Nc2cc(CCCN)ccn2)cc(-c2ccccc2)n1C |
| > 99.5 µM | O=C(O)[C@@H]1CCCC[C@@H]1NS(=O)(=O)c1ccc(Oc2ccccc2Cl)cc1 |
| 0.857 µM | O=C(Nc1ccc2c(c1)CNC2)c1cc(Cl)ccc1SC1CCCC1 |
| > 25 µM | Cn1nc(C(=O)Nc2cc(CCCN)ccn2)cc1C1CC1 |
| 2.77 µM | O=C(Nc1ccc2c(c1)CNC2)c1cc(Cl)ccc1OCC(F)(F)F |
| > 99.5 µM | CCn1cc(-c2ccc(OC)c(C)c2)nc(N2CC[C@@H](CO)C2)c1=O |
| > 25 µM | Cc1c(C(=O)Nc2cc(C(=O)N3CC[C@H]3CO)ccn2)cc(C2CC2)n1C |
| > 99.5 µM | COc1ccc(N2CCC(NS(=O)(=O)c3ccc(Cl)cc3C(=O)O)CC2)cc1 |

| IC50 | SMILES |
| --- | --- |
| > 99.5 µM | O=C(Nc1cc(Cl)cc(C(=O)N2CC[C@H](C(=O)O)C2)c1)OCc1ccccc1 |
| 36.9 µM | NCc1cccc(NC(=O)c2nn(-c3ccc(Cl)c(F)c3)c3c2CCC3)c1 |
| > 99.5 µM | Cc1ncc(NC(=O)OCc2ccccc2)cc1C(=O)Nc1cccc(CN)c1 |
| > 99.5 µM | CCn1ccnc(N2CC[C@H](C3CCOCC3)C2)c1=O |
| > 99.5 µM | CCn1c(=O)c(N2C[C@@H]3CCO[C@]3(COC)C2)nc2ccccc21 |
| 82.1 µM | CCS(=O)(=O)c1ccc(Cl)cc1C(=O)Nc1cccc(CN)c1 |
| 0.494 µM | O=C(NCC(F)F)[C@H](Nc1ccc2c(c1)CNC2)c1cc(Cl)ccc1Sc1ccccc1 |
| > 99.5 µM | COc1cc(COc2cccnc2F)nc(N2CCNCC2)n1 |
| > 99.5 µM | CCn1c(=O)c(N2CC[C@@H](CO)C2)nc2ccc(C(=O)O)cc21 |
| > 25 µM | Cn1nc([C@H](C#N)Nc2cccc([C@H]3CCOC3)c2)cc1C1CC1 |
| > 99.5 µM | NCc1cccc(NC(=O)[C@H](NC(=O)OCc2ccccc2)C2CCCCC2)c1 |
| > 99.5 µM | COC(=O)c1cc(Cl)ccc1NS(=O)(=O)c1ccc(O)cc1 |
| 7.05 µM | C#C[C@H](Nc1ccc2c(c1)CNC2)c1cccc2[nH]c(=O)[nH]c12 |
| > 25 µM | Cc1cnc([C@H]2CCCN(C(=O)Nc3ccc4c(c3)CNC4)C2)s1 |
| 0.207 µM and 0.615 µM | O=C(Nc1ccc2c(c1)CNC2)c1cccc2cn[nH]c12 |
| > 25 µM | Cc1cc(=O)[nH]c(-c2cccc(NC(=O)c3cc(C4CC4)n(C)c3C)c2)n1 |
| > 99.5 µM | CCn1c(=O)c(N2C[C@H]3CCC[C@H]2C3)nc2ccccc21 |
| 33.8 µM | C=CC[C@H](Nc1cccc(C2(C(=O)O)CCC2)c1)c1cc(Cl)cc(NC(=O)OCc2ccccc2)c1 |
| 83.6 µM | CSc1cc(F)c(C(=O)Nc2cccc(CN)c2)cc1NC(=O)OCc1ccccc1 |
| > 99.5 µM | O=C1Nc2ncccc2C[C@H]1NCc1n[nH]c2ccccc12 |
| 0.997 µM | O=C(Nc1ccc2c(c1)CNC2)c1ccc2ncsc2c1 |
| > 25 µM | O=C(Nc1ccc2c(c1)C(=O)OC2)c1ccc2c(c1)CNC2 |
| 0.797 µM and 1.06 µM | O=C(Nc1ccc2c(c1)CNC2)c1ccc2[nH]cc(C3CCNCC3)c2c1 |
| 8.51 µM | N[C@H]1CC[C@H](c2ccc(NC(=O)c3cc(Cl)cc4[nH]ncc34)cc2)C1 |
| > 99.5 µM | O=C(O)c1cc(Cl)ccc1NS(=O)(=O)c1ccc(NC2CCNCC2)nc1 |
| 21.5 µM | NC[C@H]1C[C@@H]1NC(=O)c1cc(Cl)cc(NC(=O)OCc2ccccc2)c1 |

| IC50 | SMILES |
| --- | --- |
| > 99.5 µM | CCn1c(=O)c(N2CCCC[C@H](N3CCCC3)C2)nc2ccccc21 |
| 13.7 µM | C[C@H](N)c1cccc(NC(=O)c2cc(Cl)cc(NC(=O)OCc3ccccc3)c2)c1 |
| > 99.5 µM | CCN(C(=O)Cn1ccnc(N2CC[C@H](CO)C2)c1=O)C(C)C |
| 0.26 µM | COc1cc(Cl)cc(C(=O)Nc2ccc3c(c2)CNC3)c1 |
| 9.66 µM | C=CC[C@H](Nc1cc(Cl)cc(NC(=O)OCc2ccccc2)c1)c1ccc(-c2nn[nH]n2)cc1 |
| 28.5 µM | NCc1cccc(NC(=O)[C@H](NC(=O)OCc2ccccc2)c2ccc(OCC3CCC3)cc2)c1 |
| > 25 µM | Cn1ncc2c(C(=O)Nc3ccc4c(c3)CNC4)cc(-c3cccnc3)nc21 |
| > 99.5 µM | COc1cncc(CNC(=O)[C@@H](NC(=O)OCc2ccccc2)c2ccc(OCc3ccccc3)cc2)c1 |
| > 25 µM | O=C1Cc2c(cccc2C(=O)N[C@H]2C[C@H](Cn3ccnc3)C2)N1 |
| 11.4 µM | N#Cc1ccc(C(=O)Nc2ccc3c(c2)CNC3)cc1Cl |
| 0.241 µM | O=C(Nc1ccc2c(c1)CN[C@H]2[C@H](O)CO)c1cc(F)cc2[nH]ncc12 |
| 85.7 µM | O=C(Nc1cc(Cl)cc(C(=O)Nc2nc3c(s2)CNC3)c1)OCc1ccccc1 |
| 0.354 µM | Nc1cc(Cl)cc(C(=O)Nc2ccc3c(c2)CNC3)c1N |
| > 99.5 µM | CCn1c(=O)c(N2C[C@H]3C[C@H]2CS(=O)(=O)C3)nc2ccccc21 |
| > 99.5 µM | NCc1cccc(NC(=O)[C@H](NC(=O)OCc2ccccc2)C2CCN(Cc3ccccc3)CC2)c1 |
| 0.073 µM and 0.043 µM | O=C(Nc1ccc2c(c1)CNC2)c1cc(F)cc(-c2c[nH]c(=O)c(F)c2)c1 |
| 0.886 µM | NCc1cccc(NC(=O)c2cc(Cl)cc3[nH]ncc23)c1 |
| > 99.5 µM | CC(C)(C)c1cc(N2CCN(c3cccc4[nH]ncc34)CC2)nc(C(=O)O)n1 |
| 0.328 µM | CC(C)(C)c1nc2c(C(=O)Nc3ccc4c(c3)CNC4)cc(Br)cc2[nH]1 |
| > 99.5 µM | Cc1cc(C(=O)Nc2cccc(CN)c2)cc(NCc2cnn(C)c2)n1 |
| 45.3 µM | N[C@@H]1CC[C@H](NC(=O)c2cc(Cl)cc(NC(=O)OCc3ccccc3)c2)C1 |
| 14.4 µM | CC(C)NC(=O)[C@H](Nc1ccc2c(c1)CNC2)c1cc(F)cc2[nH]ncc12 |
| > 99.5 µM | COC(=O)c1n[nH]cc1CN1CCC(c2nc3ccccc3s2)CC1 |
| > 99.5 µM | CC(C)S(=O)(=O)N1CCC([C@@H](NC(=O)OCc2ccccc2)C(=O)Nc2cccc(CN)c2)CC1 |
| > 99.5 µM | O=C(Nc1cc(Cl)cc(C(=O)N2CCC[C@H](c3nnn[nH]3)C2)c1)OCc1ccccc1 |
| 61.4 µM | NCc1ccc2c(c1)CCC[C@H]2NCc1cc(Cl)cc2c1OCC2 |

| IC50 | SMILES |
| --- | --- |
| > 99.5 µM | COc1c(C)cc(C(=O)Nc2cccc(CN)c2)cc1NC(=O)OCc1ccccc1 |
| > 99.5 µM | O=C(N[C@@H](C(=O)Nc1nc2c(s1)CNC2)c1ccc(OCc2ccccc2)cc1)OCc1ccccc1 |
| > 99.5 µM | OCc1ccc(Cl)c(N2CCN(c3ccc4[nH]cnc4c3)CC2)n1 |
| > 25 µM | C[C@](N)(C(=O)Nc1ccc2c(c1)C(=O)OC2)c1cccs1 |
| 0.019 µM and < 0.012 µM | Cc1cc([C@H](Nc2ccc3c(c2)CNC3)C(=O)NCC(F)F)cc(C(F)(F)F)c1 |
| < 2.49 µM | NCc1cccc(NC(=O)c2cc(Cl)cc(CN)c2)c1 |
| > 99.5 µM | NCc1cccc(NC(=O)[C@@H](NS(=O)(=O)c2ccccn2)c2ccc(OCc3ccccc3)cc2)c1 |
| 53.5 µM | O=C(Nc1cc(Cl)cc(C(=O)Nc2nc3c(s2)CCNC3)c1)OCc1ccccc1 |
| > 25 µM | CC(=O)N1Cc2ccc(NC(=O)c3cc(Cl)cc4[nH]ncc34)cc2C1 |
| 81 µM | c1ccc2c(CNCc3ccc(-c4cscn4)cc3)c[nH]c2c1 |
| > 99.5 µM | O=C1NCc2ccc(NC(=O)c3cc(Cl)cc4[nH]ncc34)cc21 |
| > 25 µM | O=C(Nc1cc(-c2cccnc2)ccn1)c1nc(Br)n2c1CNCC2 |
| > 99.5 µM | COc1cc(Cc2ccc3[nH]ncc3c2)nc(N2CCNCC2)n1 |
| > 99.5 µM | NCc1cccc(NC(=O)[C@@H]2C[C@H](NC(=O)OCc3ccccc3)[C@H]3C[C@H]32)c1 |
| 9.2 µM | CNC(=O)[C@H](Nc1cccc(-c2nn[nH]n2)c1)c1cc(Cl)cc2[nH]ncc12 |
| > 99.5 µM | O=C(O)Cc1c[nH]c2cc(-c3cc(Cl)cc(NC(=O)OCc4ccccc4)c3)ccc12 |
| 16.9 µM | O=C(Nc1ccc2c(c1)CNC2)c1n[nH]c2ccc(F)cc12 |
| 0.034 µM and 0.023 µM | O=C(Nc1ccc2c(c1)CNC2)c1cc(F)cc(-c2cn[nH]c2)c1 |
| 0.1 µM and 0.076 µM | O=C(Nc1ccc2c(c1)CNC2)c1cc(Cl)cc2[nH]c(-c3ccnn3C3CC3)nc12 |
| > 99.5 µM | O=C(Nc1cc(Cl)cc(C(=O)Nc2n[nH]c3c2CNC32CC2)c1)OCc1ccccc1 |
| > 99.5 µM | COc1ccc2nc(C(F)(F)F)nc(N3CCN(c4ccc(N)nc4)CC3)c2c1 |
| 2.46 µM | CC(C)OC(=O)Nc1cc(Cl)cc(C(=O)Nc2cccc(CN)c2)c1 |
| > 99.5 µM | CC1=NN(c2ccc(NS(=O)(=O)c3ccc(Cl)cc3C(=O)O)cn2)C(=O)C1 |
| > 99.5 µM | NCc1cccc(NC(=O)c2cc(C3CC3)n3nccc3n2)c1 |

| SMILES | IC50 |
| --- | --- |
| c1ccc2sc(C3CCN(CCc4c[nH]c5ccccc45)CC3)nc2c1 | > 99.5 µM |
| O=C1c2c(O)ccc([N+](=O)[O-])c2C(=O)c2c([N+](=O)[O-])ccc(O)c21 | 57.1 µM |
